Target: Prostate-specific membrane antigen (PSMA), canine (Canis lupus, UniProt I4IY07)
Assay: HPLC-based enzyme inhibition assay
Type: biochemical

Sequence of Prostate-specific membrane antigen (PSMA), canine (I4IY07 29-779): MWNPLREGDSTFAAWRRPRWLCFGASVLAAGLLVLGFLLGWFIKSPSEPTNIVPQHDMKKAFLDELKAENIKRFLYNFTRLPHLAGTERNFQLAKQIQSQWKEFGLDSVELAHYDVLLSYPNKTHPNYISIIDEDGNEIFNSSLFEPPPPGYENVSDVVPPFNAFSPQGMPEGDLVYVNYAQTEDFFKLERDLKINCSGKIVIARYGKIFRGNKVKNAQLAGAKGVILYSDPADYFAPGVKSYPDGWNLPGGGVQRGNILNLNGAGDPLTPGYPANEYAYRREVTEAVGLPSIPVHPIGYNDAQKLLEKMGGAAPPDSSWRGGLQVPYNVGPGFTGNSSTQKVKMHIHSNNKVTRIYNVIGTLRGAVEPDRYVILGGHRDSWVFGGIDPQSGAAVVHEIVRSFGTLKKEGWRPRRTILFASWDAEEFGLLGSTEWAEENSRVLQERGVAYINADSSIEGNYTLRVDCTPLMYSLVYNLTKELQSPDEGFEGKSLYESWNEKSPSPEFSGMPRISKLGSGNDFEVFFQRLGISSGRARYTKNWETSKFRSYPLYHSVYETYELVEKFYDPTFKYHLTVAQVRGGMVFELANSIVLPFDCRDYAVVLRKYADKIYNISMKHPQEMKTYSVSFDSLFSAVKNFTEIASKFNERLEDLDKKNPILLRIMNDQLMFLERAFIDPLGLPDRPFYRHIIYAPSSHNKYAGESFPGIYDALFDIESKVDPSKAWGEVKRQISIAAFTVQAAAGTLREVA

IC50: 1.6 nM
Substance: FAMX-CTT-54 [compound 2]

— PMC4237199 (The Prostate, 2014)
